Results from patent publication US20100035866A1, “NOVEL SUBSTITUTED-1, 1-DIOXO-BENZO[1,2,4]THIADIAZIN-3ONES, PREPARATION METHOD THEREOF, AND PHARMACEUTICAL COMPOSITION CONTAINING THE SAME” (KOREA RESEARCH INSTITUTE OF CHEMICAL TECHNOLOGY, priority 2006, published 2010).
Read-outs that look alike come from different tables or passages of the source.

Assays:
[1] = biological target: Human serotonin 5-HT6 receptor (Homo sapiens, UniProt P50406); test: [3H]LSD binding assay on cloned 5-HT6 receptor
Human serotonin 5-HT6 receptor, sequence (P50406 whole entry): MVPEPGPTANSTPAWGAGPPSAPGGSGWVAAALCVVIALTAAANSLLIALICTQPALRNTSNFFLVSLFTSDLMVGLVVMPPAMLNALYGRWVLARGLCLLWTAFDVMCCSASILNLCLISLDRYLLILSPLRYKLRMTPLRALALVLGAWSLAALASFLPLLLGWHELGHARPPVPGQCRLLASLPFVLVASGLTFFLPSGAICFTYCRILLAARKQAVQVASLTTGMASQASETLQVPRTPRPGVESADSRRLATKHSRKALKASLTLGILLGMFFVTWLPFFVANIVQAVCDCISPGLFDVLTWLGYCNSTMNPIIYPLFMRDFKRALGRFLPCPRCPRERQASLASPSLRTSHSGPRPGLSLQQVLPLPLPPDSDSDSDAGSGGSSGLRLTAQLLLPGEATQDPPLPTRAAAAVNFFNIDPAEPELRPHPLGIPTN

[2] = IC50 (nM), binding affinity to the 5-HT6 receptor, Table 2, 1.87 nM [3H]LSD, cloned human receptor membranes from Sf21 cells, 37° C. 60 min

Row | Structure (SMILES) | IC50 [1, 2] [nM] | melting point [°C] | IC50 [1] [nM]
1 | N#Cc1ccc(CN2C(=O)N(Cc3ccccc3)c3cc(Cl)cc(N4CCNCC4)c3S2(=O)=O)cc1 [Example 57, 4-(4-Benzyl-6-chloro-1,1,3-trioxo-8-piperazin-1-yl-3,4-dihydro-1H-1λ^6-benzo[1,2,4]thiadiazin-2-ylmethyl)-benzonitrile] | 18 | 135 to 137 | 
2 | CN1CCN(c2cc(Cl)cc3c2S(=O)(=O)N(Cc2ccc([N+](=O)[O-])cc2)C(=O)N3Cc2ccccc2)CC1 [Example 22, 4-Benzyl-6-chloro-8-(4-methyl-piperazin-1-yl)-2-(4-nitro-benzyl)-1,1-dioxo-1,4-dihydro-2H-1λ^6-benzo[1,2,4]thiadiazin-3-one] | 8.1 | 163 to 164 | 
3 | O=C1N(Cc2ccccc2)c2cc(Cl)cc(N3CCNCC3)c2S(=O)(=O)N1Cc1ccccc1F [Example 45, 4-Benzyl-6-chloro-2-(2-fluoro-benzyl)-1,1-dioxo-8-piperazin-1-yl-1,4-dihydro-2H-1λ^6-benzo[1,2,4]thiadiazin-3-one] | 18.7 | 120 to 121 | 
4 | CN1CCN(c2cc(Cl)cc3c2S(=O)(=O)N(Cc2cccc(Cl)c2)C(=O)N3Cc2ccccc2)CC1 [Example 6, 4-Benzyl-6-chloro-2-(3-chloro-benzyl)-8-(4-methyl-piperazin-1-yl)-1,1-dioxo-1,4-dihydro-2H-1λ^6-benzo[1,2,4]thiadiazin-3-one] | 5.2 | 87 to 88 | 
5 | CN1CCN(c2cc(Cl)cc3c2S(=O)(=O)N(Cc2cccc([N+](=O)[O-])c2)C(=O)N3Cc2ccccc2)CC1 [Example 21, 4-Benzyl-6-chloro-8-(4-methyl-piperazin-1-yl)-2-(3-nitro-benzyl)-1,1-dioxo-1,4-dihydro-2H-1λ^6-benzo[1,2,4]thiadiazin-3-one] | 4.2 | 172 to 175 | 
6 | O=C1N(Cc2ccccc2)c2cc(Cl)cc(N3CCNCC3)c2S(=O)(=O)N1Cc1ccccc1[N+](=O)[O-] [Example 55, 4-Benzyl-6-chloro-2-(2-nitro-benzyl)-1,1-dioxo-8-piperazin-1-yl-1,4-dihydro-2H-1λ^6-benzo[1,2,4]thiadiazin-3-one] | 33 | 134 to 135 | 
7 | COc1ccccc1CN1C(=O)N(Cc2ccccc2)c2cc(Cl)cc(N3CCNCC3)c2S1(=O)=O [Example 51, 4-Benzyl-6-chloro-2-(2-methoxy-benzyl)-1,1-dioxo-8-piperazin-1-yl-1,4-dihydro-2H-1λ^6-benzo[1,2,4]thiadiazin-3-one] | 48.9 | 129 to 130 | 
8 | O=C1N(Cc2ccccc2)c2cc(Cl)cc(N3CCNCC3)c2S(=O)(=O)N1Cc1ccc(I)cc1 [Example 49, 4-Benzyl-6-chloro-2-(4-iodo-benzyl)-1,1-dioxo-8-piperazin-1-yl-1,4-dihydro-2H-1λ^6-benzo[1,2,4]thiadiazin-3-one] | 17.1 | 153 to 154 | 
9 | CCCCCCCCCCN1C(=O)N(Cc2ccccc2)c2cc(Cl)cc(N3CCNCC3)c2S1(=O)=O [Example 67, 4-Benzyl-6-chloro-2-decyl-1,1-dioxo-8-piperazin-1-yl-1,4-dihydro-2H-1λ^6-benzo[1,2,4]thiadiazin-3-one] | 3 |  | 
10 | CN1CCN(c2cc(Cl)cc3c2S(=O)(=O)N(C)C(=O)N3C)CC1 [Example 31, 6-Chloro-2,4-dimethyl-8-(4-methyl-piperazin-1-yl)-1,1-dioxo-1,4-dihydro-2H-1λ^6-benzo[1,2,4]thiadiazin-3-one] |  |  | 745
11 | COc1ccccc1N1C(=O)N(Cc2ccccc2)c2cc(Cl)cc(N3CCNCC3)c2S1(=O)=O [Example 61, 4-Benzyl-6-chloro-2-(2-methoxy-phenyl)-1,1-dioxo-8-piperazin-1-yl-1,4-dihydro-2H-1λ^6-benzo[1,2,4]thiadiazin-3-one] | 50.7 | 175 to 176 | 
12 | CCCN1C(=O)N(Cc2ccccc2)c2cc(Cl)cc(N3CCNCC3)c2S1(=O)=O [Example 65, 4-Benzyl-6-chloro-2-propyl-1,1-dioxo-8-piperazin-1-yl-1,4-dihydro-2H-1λ^6-benzo[1,2,4]thiadiazin-3-one] |  | 148 to 150 | 
13 | COc1ccccc1CN1C(=O)N(Cc2ccccc2)c2cc(Cl)cc(N3CCN(C)CC3)c2S1(=O)=O [Example 16, 4-Benzyl-6-chloro-2-(2-methoxy-benzyl)-8-(4-methyl-piperazin-1-yl)-1,1-dioxo-1,4-dihydro-2H-1λ^6-benzo[1,2,4]thiadiazin-3-one] | 4.6 | 93 to 94 | 
14 | CCCCCCCCCCN1C(=O)N(Cc2ccccc2)c2cc(Cl)cc(N3CCN(C)CC3)c2S1(=O)=O [Example 40, 4-Benzyl-6-chloro-2-decyl-8-(4-methyl-piperazin-1-yl)-1,1-dioxo-1,4-dihydro-2H-1λ^6-benzo[1,2,4]thiadiazin-3-one] | 4.5 |  | 
15 | O=C1N(Cc2ccccc2)c2cc(Cl)cc(N3CCNCC3)c2S(=O)(=O)N1c1ccccc1 [Example 60, 4-Benzyl-6-chloro-1,1-dioxo-2-phenyl-8-piperazin-1-yl-1,4-dihydro-2H-1λ^6-benzo[1,2,4]thiadiazin-3-one] | 15.5 | 275 to 277 | 
16 | O=C1N(Cc2ccccc2)c2cc(Cl)cc(N3CCN4CCC[C@@H]4C3)c2S(=O)(=O)N1Cc1ccccc1Cl [Example 74, 4-Benzyl-6-chloro-2-(2-chloro-benzyl)-8-[(6R)-1,4-diazabicyclo[4.3.0]non-4-yl]-1,1-dioxo-1,4-dihydro-2H-1λ^6-benzo[1,2,4]thiadiazin-3-one] |  | 114 to 116 | 
17 | O=C1N(Cc2ccccc2)c2cc(Cl)cc(N3CCNCC3)c2S(=O)(=O)N1Cc1ccccc1Br [Example 48, 4-Benzyl-2-(2-bromo-benzyl)-6-chloro-1,1-dioxo-8-piperazin-1-yl-1,4-dihydro-2H-1λ^6-benzo[1,2,4]thiadiazin-3-one] | 46 | 144 to 145 | 
18 | Cc1ccc(CN2C(=O)N(Cc3ccccc3)c3cc(Cl)cc(N4CCN(C)CC4)c3S2(=O)=O)o1 [Example 43, 4-Benzyl-6-chloro-2-(5-methyl-furan-2-ylmethyl)-8-(4-methyl-piperazin-1-yl)-1,1-dioxo-1,4-dihydro-2H-1λ^6-benzo[1,2,4]thiadiazin-3-one] | 75.9 | 130 to 131 | 

More lines, main results first:

Row | IC50 [1, 2] [nM] | melting point [°C] | Structure (SMILES) | IC50 [1] [nM]
19 | 8.9 | 107 to 109 | CN1CCN(c2cc(Cl)cc3c2S(=O)(=O)N(Cc2ccccc2Br)C(=O)N3Cc2ccccc2)CC1 [Example 8, 4-Benzyl-2-(2-bromo-benzyl)-6-chloro-8-(4-methyl-piperazin-1-yl)-1,1-dioxo-1,4-dihydro-2H-1λ^6-benzo[1,2,4]thiadiazin-3-one] | 
20 | 6.1 | 115 to 116 | CN1CCN(c2cc(Cl)cc3c2S(=O)(=O)N(Cc2ccc(Br)cc2)C(=O)N3Cc2ccccc2)CC1 [Example 10, 4-Benzyl-2-(4-bromo-benzyl)-6-chloro-8-(4-methyl-piperazin-1-yl)-1,1-dioxo-1,4-dihydro-2H-1λ^6-benzo[1,2,4]thiadiazin-3-one] | 
21 | 28 | 155 to 156 | COc1ccc(N2C(=O)N(Cc3ccccc3)c3cc(Cl)cc(N4CCNCC4)c3S2(=O)=O)cc1 [Example 63, 4-Benzyl-6-chloro-2-(4-methoxy-phenyl)-1,1-dioxo-8-piperazin-1-yl-1,4-dihydro-2H-1λ^6-benzo[1,2,4]thiadiazin-3-one] | 
22 | 6.8 | 142 to 143 | C[C@H]1CN(c2cc(Cl)cc3c2S(=O)(=O)N(Cc2ccccc2Cl)C(=O)N3Cc2ccccc2)CCN1 [Example 72, 4-Benzyl-6-chloro-2-(2-chloro-benzyl)-8-[(S)-3-methyl-piperazin-1-yl]-1,1-dioxo-1,4-dihydro-2H-1λ^6-benzo[1,2,4]thiadiazin-3-one] | 
23 |  | 154 to 155 | O=C1N(Cc2ccccc2)c2cc(Cl)cc(N3CCNCC3)c2S(=O)(=O)N1Cc1cccc(F)c1 [Example 46, 4-Benzyl-6-chloro-2-(3-fluoro-benzyl)-1,1-dioxo-8-piperazin-1-yl-1,4-dihydro-2H-1λ^6-benzo[1,2,4]thiadiazin-3-one] | 
24 | 1.5 | 155 to 158 | CN1CCN(c2cc(Cl)cc3c2S(=O)(=O)N(CC2CCCCC2)C(=O)N3Cc2ccccc2)CC1 [Example 36, 4-Benzyl-6-chloro-2-cyclohexylmethyl-8-(4-methyl-piperazin-1-yl)-1,1-dioxo-1,4-dihydro-2H-1λ^6-benzo[1,2,4]thiadiazin-3-one] | 
25 | > 1000 | 171 to 172 | O=C1N(Cc2ccccc2)c2cc(Cl)cc(N3CCOCC3)c2S(=O)(=O)N1Cc1ccccc1Cl [Example 69, 4-Benzyl-6-chloro-2-(2-chloro-benzyl)-8-morpholin-4-yl-1,1-dioxo-1,4-dihydro-2H-1λ^6-benzo[1,2,4]thiadiazin-3-one] | 
26 | 16 | 143 to 144 | O=C1N(Cc2ccccc2)c2cc(Cl)cc(N3CCN4CCC[C@H]4C3)c2S(=O)(=O)N1Cc1ccccc1Cl [Example 73, 4-Benzyl-6-chloro-2-(2-chloro-benzyl)-8-[(6S)-1,4-diazabicyclo[4.3.0]non-4-yl]-1,1-dioxo-1,4-dihydro-2H-1λ^6-benzo[1,2,4]thiadiazin-3-one] | 
27 | 15.9 | 126 to 127 | O=C1N(Cc2ccccc2)c2cc(Cl)cc(N3CCNCC3)c2S(=O)(=O)N1Cc1ccccc1Cl [Example 47, 4-Benzyl-6-chloro-2-(2-chloro-benzyl)-1,1-dioxo-8-piperazin-1-yl-1,4-dihydro-2H-1λ^6-benzo[1,2,4]thiadiazin-3-one] | 
28 | 22.2 | 70 to 72 | Cc1ccccc1CN1C(=O)N(Cc2ccccc2)c2cc(Cl)cc(N3CCNCC3)c2S1(=O)=O [Example 50, 4-Benzyl-6-chloro-2-(2-methyl-benzyl)-1,1-dioxo-8-piperazin-1-yl-1,4-dihydro-2H-1λ^6-benzo[1,2,4]thiadiazin-3-one] | 
29 | 4.2 |  | CN1CCN(c2cc(Cl)cc3c2S(=O)(=O)N(C)C(=O)N3Cc2ccccc2)CC1 [Example 32, 4-Benzyl-6-chloro-2-methyl-8-(4-methyl-piperazin-1-yl)-1,1-dioxo-1,4-dihydro-2H-1λ^6-benzo[1,2,4]thiadiazin-3-one] | 
